Activity calls are given as the source filed them. No cut-off for these calls is given here.
Assays:
Assay type in all cases: cell-based
[1] = target: T1, Sodium-dependent dopamine transporter (Homo sapiens, UniProt Q01959); assay: Displacement of [3H]WIN-35428 from human dopamine transporter expressed in mouse N2A cells by scintillation counting
[2] = target: Sodium-dependent dopamine transporter (Rattus norvegicus) (UniProt P23977); assay: Binding affinity to rat dopamine transporter expressed in pig LLC-PK1 cells assessed as drug incorporation at 30 nM after 1 hr by SDS-PAGE analysis in presence of cocaine; settings: tested as the 125I-labelled form
[3] = target: T1, Sodium-dependent dopamine transporter; assay: Inhibition of [3H]dopamine uptake at human dopamine transporter expressed in mouse N2A cells by scintillation counting
[4] = target: Sodium-dependent dopamine transporter (Rattus norvegicus) (UniProt P23977); assay: Binding affinity to rat dopamine transporter expressed in pig LLC-PK1 cells assessed as drug incorporation at 30 nM after 1 hr by SDS-PAGE analysis; settings: tested as the 125I-labelled form

T1 sequence (Q01959 whole entry): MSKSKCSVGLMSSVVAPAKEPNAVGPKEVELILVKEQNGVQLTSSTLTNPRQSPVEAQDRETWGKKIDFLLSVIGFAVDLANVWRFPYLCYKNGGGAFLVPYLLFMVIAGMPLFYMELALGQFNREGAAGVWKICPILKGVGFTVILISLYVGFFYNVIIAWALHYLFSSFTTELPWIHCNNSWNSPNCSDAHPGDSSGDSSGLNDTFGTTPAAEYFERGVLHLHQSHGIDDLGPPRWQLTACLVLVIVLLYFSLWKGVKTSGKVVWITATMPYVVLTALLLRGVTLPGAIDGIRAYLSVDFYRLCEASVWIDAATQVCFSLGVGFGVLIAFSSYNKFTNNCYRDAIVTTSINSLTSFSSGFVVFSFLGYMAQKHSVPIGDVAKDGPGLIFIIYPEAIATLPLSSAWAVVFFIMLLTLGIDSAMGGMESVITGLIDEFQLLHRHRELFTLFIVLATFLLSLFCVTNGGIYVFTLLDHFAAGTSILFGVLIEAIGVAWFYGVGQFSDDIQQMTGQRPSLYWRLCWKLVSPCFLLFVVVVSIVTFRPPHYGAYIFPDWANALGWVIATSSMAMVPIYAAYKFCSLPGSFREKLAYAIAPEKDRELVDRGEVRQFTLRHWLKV
Sodium-dependent dopamine transporter (Rattus norvegicus), sequence (P23977 whole entry): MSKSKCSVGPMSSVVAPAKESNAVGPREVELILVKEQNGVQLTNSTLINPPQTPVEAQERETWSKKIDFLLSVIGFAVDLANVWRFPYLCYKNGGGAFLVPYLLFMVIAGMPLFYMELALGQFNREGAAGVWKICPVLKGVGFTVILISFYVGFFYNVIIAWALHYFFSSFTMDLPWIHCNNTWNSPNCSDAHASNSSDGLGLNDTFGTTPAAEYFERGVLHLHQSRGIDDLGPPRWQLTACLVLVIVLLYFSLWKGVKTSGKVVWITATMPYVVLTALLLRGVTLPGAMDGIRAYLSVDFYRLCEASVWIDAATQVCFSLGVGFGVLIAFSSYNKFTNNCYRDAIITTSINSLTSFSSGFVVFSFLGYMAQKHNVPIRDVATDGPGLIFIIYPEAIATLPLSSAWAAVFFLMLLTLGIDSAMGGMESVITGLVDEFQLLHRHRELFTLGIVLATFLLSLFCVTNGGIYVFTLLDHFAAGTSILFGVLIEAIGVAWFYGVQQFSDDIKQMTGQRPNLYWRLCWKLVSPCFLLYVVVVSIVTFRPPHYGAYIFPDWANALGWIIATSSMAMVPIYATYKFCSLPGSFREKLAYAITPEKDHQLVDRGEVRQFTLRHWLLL

Row | SMILES | Ki [1] [nM] | Activity [2] | IC50 [3] [nM] | Activity [4]
1 | CCCC(C(=O)c1ccc(N=[N+]=[N-])c(I)c1)N1CCCC1 (stereo not given) | 78 | inactive | 264 | Active
2 | CCCC(C(=O)c1ccc(N)cc1)N1CCCC1 (stereo not given) | 5 |  | 7 | 
3 | CCCC(C(=O)c1ccc(C)cc1)N1CCCC1 (stereo not given) [PYROVALERONE] | 8 |  | 32 | 
4 | CCCC(C(=O)c1ccc(N)c(I)c1)N1CCCC1 (stereo not given) | 28 |  | 175 | 
